Format in all cases: cell-based
Assay [1] concerns the target ER in MCF-7 cells (Homo sapiens (Human), UniProt P03372). The assay can be described thus: In-cell western (ICW) ER degradation assay in MCF-7 cells (Compounds A1-A70). The following applies: for DC50: ER degradation, MCF-7 cells, 16 hrs treatment, 0.02 to 300 nM, read-out: MCF7 ICW DC50; for Dmax: MCF7, read-out: MCF7 ICW Dmax (%). As for the experimental part:
(§1) ERa degradative activity of compounds can be assessed in MCF-7 and T47D Cells. MCF-7 and T47D cell are seeded and are subsequently treated with the compounds at certain concentrations (e.g., 0.02 to 300 nM). DMSO can be used as vehicle control. Cells are fixed and are blocked with Intercept (PBS) Blocking Buffer (e.g., Li—COR, Odyssey Blocking Buffer), and are stained with ER (e.g., 1:500, Cell signaling) primary antibody for overnight at cold room. Secondary Antibody (e.g., IRDye 800CW Goat anti-Rabbit IgG) and CellTag 700 Stain are added in Intercept (PBS) Blocking Buffer. Finally, cell plate is placed in incubator to dry. Image and signal are captured on Odyssey® DLx Imaging System.
(§2) Day 3: After 16 hrs of compounds treatment, cells were fixed by 4% PFA and permeabilized with elution buffer (0.1% Triton X-100 in 1% PBS Solution). Subsequently, cells were blocked with Intercept (PBS) Blocking Buffer (Li—COR, Odyssey Blocking Buffer), and were stained with ER (1:500, Cell signaling) primary antibody for overnight at cold room.
(§3) Day 4: Remove the buffer, add IRDye 800CW Goat anti-Rabbit IgG Secondary Antibody (1:2000) and CellTag 700 Stain (1:500) in Intercept (PBS) Blocking Buffer. Finally, cell plate is placed in incubator to dry. Image and signal were captured on Odyssey® DLx Imaging System.

Assay [2] concerns the target ER in T47D cells (Homo sapiens (Human), UniProt P03372). The assay can be described thus: In-cell western (ICW) ER degradation assay in T47D cells (Compounds A1-A70). The following applies: for DC50: ER degradation, 0.02 to 300 nM; for Dmax: T47D, read-out: T47D ICW Dmax (%). As for the experimental part:
as §1, §2, §3

Assay [3] has as its target ER (Homo sapiens (Human), UniProt P03372). The assay can be described thus: In-cell western blot analysis of relative ER percentage (Compounds B1-B278). The following applies: ER degradation, 16 hours, read-out: ICW DC50. The method, boiled down: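 Cells seeded at 40,000 or 10,000 cells/well and treated with compound (final 0.5% DMSO) for 16 h, then formaldehyde-fixed, Triton-permeabilized and co-stained for ER and GAPDH with 680/800 secondaries; LI-COR plate read. ER level expressed relative to untreated/DMSO-treated wells set at 100%.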

Assay [4] can be described thus: Cell growth assay (WST-8) (Compounds B1-B278). To be noted: 96 h; T47D cell line; WST-8, 4 days; read-out: Cell Growth Inhibition in T47D cell line IC50. Put shortly: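 Cells seeded at 1500/well overnight, treated one day later with compound doses for 4 days, then 10% WST-8 added for 2.5 h at 37° C in CO2. Absorbance at 450 nm, expressed relative to vehicle control over three independent repeats.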
In general terms: Formazan colour is commonly taken as a measure of viable cells.

Where two headings read alike, the source gives them in different places. A value given as a limit tells only on which side of the number the result lay.

Chain of ER (P03372 whole entry): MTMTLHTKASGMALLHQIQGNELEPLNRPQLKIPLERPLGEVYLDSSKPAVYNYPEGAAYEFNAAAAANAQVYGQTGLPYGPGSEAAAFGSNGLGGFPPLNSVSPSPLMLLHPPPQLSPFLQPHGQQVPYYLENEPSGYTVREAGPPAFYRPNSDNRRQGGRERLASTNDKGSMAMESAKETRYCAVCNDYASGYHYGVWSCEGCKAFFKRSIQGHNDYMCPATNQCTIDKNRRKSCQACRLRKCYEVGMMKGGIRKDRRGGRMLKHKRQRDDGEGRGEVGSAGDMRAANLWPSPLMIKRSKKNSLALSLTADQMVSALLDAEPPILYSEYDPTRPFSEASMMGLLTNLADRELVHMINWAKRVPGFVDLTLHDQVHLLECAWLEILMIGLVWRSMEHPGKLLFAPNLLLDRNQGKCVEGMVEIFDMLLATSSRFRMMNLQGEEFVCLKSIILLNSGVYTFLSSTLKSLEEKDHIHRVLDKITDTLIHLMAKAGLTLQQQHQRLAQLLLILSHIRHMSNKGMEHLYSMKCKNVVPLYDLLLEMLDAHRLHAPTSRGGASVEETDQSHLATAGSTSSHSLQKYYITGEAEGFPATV
Chain of ER in T47D cells (P03372 whole entry): as above
Chain of ER in MCF-7 cells (P03372 whole entry): as above

Usually DC50 stands for the concentration giving 50% degradation. What is called Dmax is the largest share of the target that was removed. On to `COc1cc(N2CCC(CN3CCN4c5cc6c(cc5OC[C@H]4C3)C(=O)N([C@@H]3CCC(=O)NC3=O)C6)CC2)ccc1[C@@H]1c2[nH]c3ccccc3c2C[C@@H](C)N1CC(F)F` [Compound A48, (R)-3-((R)-3-((1-(4-((1R,3R)-2-(2,2-difluoroethyl)-3-methyl-2,3,4,9-tetrahydro-1H-pyrido[3,4-b]indol-1-yl)-3-methoxyphenyl)piperidin-4-yl)methyl)-8-oxo-1,2,3,4,4a,5,8,10-octahydro-9H-pyrazino[1′,2′:4,5][1,4]oxazino[2,3-f]isoindol-9-yl)piperidine-2,6-dione], for which the DC50 is under 1 nM in assay [1] and under 1 nM in assay [2] (T47D cells, 16 hrs treatment). The maximal degradation (Dmax) in assay [1] was over 75%; in assay [2] (maximal ER degradation, T47D cells, 16 hrs treatment), over 75%.
Turning to `C[C@H]1Cc2c([nH]c3ccccc23)[C@H](c2cnc(N3CCC4(CC3)C[C@@H](CN3CCN5c6cc7c(cc6OC[C@@H]5C3)C(=O)N([C@@H]3CCC(=O)NC3=O)C7)CO4)nc2)N1CC(F)F` [Compound A68, (R)-3-((S)-3-(((S)-8-(5-((1S,3S)-2-(2,2-difluoroethyl)-3-methyl-2,3,4,9-tetrahydro-1H-pyrido[3,4-b]indol-1-yl)pyrimidin-2-yl)-1-oxa-8-azaspiro[4.5]decan-3-yl)methyl)-8-oxo-1,2,3,4,4a,5,8,10-octahydro-9H-pyrazino[1′,2′:4,5][1,4]oxazino[2,3-f]isoindol-9-yl)piperidine-2,6-dione], the DC50 in assay [1] was under 1 nM; in assay [2] (T47D cells, 16 hrs treatment), under 1 nM. For the same compound, the Dmax in assay [1] is 50 to 75%; in assay [2] it was over 75%.
In general, IC50 refers to the concentration at which inhibition is half-maximal. Turning to `C[C@@H]1Cc2c([nH]c3ccccc23)[C@@H](c2c(F)cc(N3CCC4(CC3)OCC(CN3CCN5c6cc7c(cc6OC[C@@H]5C3)C(=O)N(C3CCC(=O)NC3=O)C7)CO4)cc2F)N1CC(F)(F)CO` (stereo partly drawn) [Compound B270, 3-((S)-3-((9-(4-((1R,3R)-2-(2,2-difluoro-3-hydroxypropyl)-3-methyl-2,3,4,9-tetrahydro-1H-pyrido[3,4-b]indol-1-yl)-3,5-difluorophenyl)-1,5-dioxa-9-azaspiro[5.5]undecan-3-yl)methyl)-8-oxo-1,2,3,4,4a,5,8,10-octahydro-9H-pyrazino[1′,2′:4,5][1,4]oxazino[2,3-f]isoindol-9-yl)piperidine-2,6-dione], in assay [3], the DC50 lay in the range of 10 to 100 nM. For the same compound, in assay [4], the IC50 is under 1 nM.
Consider `COc1cc(N2CCC3(CC2)OCC(CN2CCN4c5ccc6c(c5OC[C@@H]4C2)CN([C@@H]2CCC(=O)NC2=O)C6=O)CO3)ccc1[C@@H]1c2[nH]c3ccccc3c2C[C@@H](C)N1CC(F)F` [Compound B271, (R)-3-((S)-7-((9-(4-((1R,3R)-2-(2,2-difluoroethyl)-3-methyl-2,3,4,9-tetrahydro-1H-pyrido[3,4-b]indol-1-yl)-3-methoxyphenyl)-1,5-dioxa-9-azaspiro[5.5]undecan-3-yl)methyl)-1-oxo-1,3,5,5a,6,7,8,9-octahydro-2H-pyrazino[1′,2′:4,5][1,4]oxazino[2,3-e]isoindol-2-yl)piperidine-2,6-dione], for which, in assay [3], the DC50 is 10 to 100 nM. Besides, the 50% inhibitory concentration (IC50) in assay [4] was under 1 nM.
For `C[C@@H]1Cc2c([nH]c3ccccc23)[C@@H](c2cnc(N3CCC4(CC3)OCC(CN3CCN5c6ccc7c(c6OC[C@H]5C3)CN([C@H]3CCC(=O)NC3=O)C7=O)CO4)nc2)N1CC(F)(F)CO` [Compound B272, (S)-3-((R)-7-((9-(5-((1R,3R)-2-(2,2-difluoro-3-hydroxypropyl)-3-methyl-2,3,4,9-tetrahydro-1H-pyrido[3,4-b]indol-1-yl)pyrimidin-2-yl)-1,5-dioxa-9-azaspiro[5.5]undecan-3-yl)methyl)-1-oxo-1,3,5,5a,6,7,8,9-octahydro-2H-pyrazino[1′,2′:4,5][1,4]oxazino[2,3-e]isoindol-2-yl)piperidine-2,6-dione], in that order: 10 to 100 nM and under 1 nM.
Take `COc1cc(N2CCC3(CC2)OCC(CN2CCN4c5cc6c(cc5OC[C@H]4C2)C(=O)N(C2CCC(=O)NC2=O)C6)CO3)ccc1[C@@H]1c2[nH]c3ccccc3c2C[C@@H](C)N1CC(F)F` (stereo partly drawn) [Compound B273, 3-((R)-3-((9-(4-((1R,3R)-2-(2,2-difluoroethyl)-3-methyl-2,3,4,9-tetrahydro-1H-pyrido[3,4-b]indol-1-yl)-3-methoxyphenyl)-1,5-dioxa-9-azaspiro [5.5]undecan-3-yl)methyl)-8-oxo-1,2,3,4,4a,5,8,10-octahydro-9H-pyrazino[1′,2′:4,5][1,4]oxazino[2,3-f]isoindol-9-yl)piperidine-2,6-dione]: in assay [3], the DC50 is 10 to 100 nM. For the same compound, in assay [4], the IC50 was in the range of 1 to 10 nM.
For `COc1cc(N2CCC3(CC2)OCC(CN2CCC4(CC2)COc2c4ccc4c2CN(C2CCC(=O)NC2=O)C4=O)CO3)ccc1[C@@H]1c2[nH]c3ccccc3c2C[C@@H](C)N1CC(F)F` (stereo partly drawn) [Compound B274, 3-(1′-((9-(4-((1R,3R)-2-(2,2-difluoroethyl)-3-methyl-2,3,4,9-tetrahydro-1H-pyrido[3,4-b]indol-1-yl)-3-methoxyphenyl)-1,5-dioxa-9-azaspiro[5.5]undecan-3-yl)methyl)-6-oxo-6,8-dihydro-2H,7H-spiro[furo[2,3-e]isoindole-3,4′-piperidin]-7-yl)piperidine-2,6-dione], in assay [3], the DC50 was in the range of 10 to 100 nM. In assay [4], the IC50 is under 1 nM.
For `C[C@@H]1Cc2c([nH]c3ccccc23)[C@@H](c2cnc(N3CC4(C3)OCC(CN3CCN5c6ccc7c(c6OC[C@H]5C3)CN([C@H]3CCC(=O)NC3=O)C7=O)CO4)nc2)N1CC(F)(F)CO` [Compound B275, (S)-3-((R)-7-((2-(5-((1R,3R)-2-(2,2-difluoro-3-hydroxypropyl)-3-methyl-2,3,4,9-tetrahydro-1H-pyrido[3,4-b]indol-1-yl)pyrimidin-2-yl)-5,9-dioxa-2-azaspiro[3.5]nonan-7-yl)methyl)-1-oxo-1,3,5,5a,6,7,8,9-octahydro-2H-pyrazino[1′,2′:4,5][1,4]oxazino[2,3-e]isoindol-2-yl)piperidine-2,6-dione], in that order: over 100 nM and over 10 nM.
On to `C[C@@H]1Cc2c([nH]c3ccccc23)[C@@H](c2cnc(N3CC4(C3)OCC(CN3CCN5c6cc7c(cc6OC[C@@H]5C3)C(=O)N(C3CCC(=O)NC3=O)C7)CO4)nc2)N1CC(F)(F)CO` (stereo partly drawn) [Compound B276, 3-((S)-3-((2-(5-((1R,3R)-2-(2,2-difluoro-3-hydroxypropyl)-3-methyl-2,3,4,9-tetrahydro-1H-pyrido[3,4-b]indol-1-yl)pyrimidin-2-yl)-5,9-dioxa-2-azaspiro[3.5]nonan-7-yl)methyl)-8-oxo-1,2,3,4,4a,5,8,10-octahydro-9H-pyrazino[1′,2′:4,5][1,4]oxazino[2,3-f]isoindol-9-yl)piperidine-2,6-dione], for which the DC50 in assay [3] was over 100 nM. Also, the IC50 in assay [4] is over 10 nM.
Take `COc1cc(N2CC3(CCC(CN4CCN5c6ccc7c(c6OC[C@H]5C4)CN(C4CCC(=O)NC4=O)C7=O)CO3)C2)ccc1[C@@H]1c2[nH]c3ccccc3c2C[C@@H](C)N1CC(F)F` (stereo partly drawn) [Compound B277, 3-((5aR)-7-((2-(4-((1R,3R)-2-(2,2-difluoroethyl)-3-methyl-2,3,4,9-tetrahydro-1H-pyrido[3,4-b]indol-1-yl)-3-methoxyphenyl)-5-oxa-2-azaspiro[3.5]nonan-7-yl)methyl)-1-oxo-1,3,5,5a,6,7,8,9-octahydro-2H-pyrazino[1′,2′:4,5][1,4]oxazino[2,3-e]isoindol-2-yl)piperidine-2,6-dione]: the DC50 in assay [3] lay in the range of 10 to 100 nM. Further, the IC50 in assay [4] lay in the range of 1 to 10 nM.
On to `COc1cc(N2CC3(CCC(CN4CCN5c6cc7c(cc6OC[C@@H]5C4)C(=O)N(C4CCC(=O)NC4=O)C7)CO3)C2)ccc1[C@@H]1c2[nH]c3ccccc3c2C[C@@H](C)N1CC(F)F` (stereo partly drawn) [Compound B278, 3-((4aS)-3-((2-(4-((1R,3R)-2-(2,2-difluoroethyl)-3-methyl-2,3,4,9-tetrahydro-1H-pyrido[3,4-b]indol-1-yl)-3-methoxyphenyl)-5-oxa-2-azaspiro[3.5]nonan-7-yl)methyl)-8-oxo-1,2,3,4,4a,5,8,10-octahydro-9H-pyrazino[1′,2′:4,5][1,4]oxazino[2,3-f]isoindol-9-yl)piperidine-2,6-dione], for which the DC50 in assay [3] lay within 10 to 100 nM. Also, in assay [4], the IC50 is 1 to 10 nM.
